PMC8541628, “Development of Novel Quinoline-Based Sulfonamides as Selective Cancer-Associated Carbonic Anhydrase Isoform IX Inhibitors” (International Journal of Molecular Sciences, 2021)
Like-named read-outs stand apart in the source and are kept apart here.

Tests used:
Bax [1] = assay: Bax expression level (ELISA) in MDA-MB-231 cells; type: cell-based, human; details: 24 h incubation
Description: (§1) The levels of two members of Bcl-2 family proteins, the anti-apoptotic Bcl-2 protein, and the counteracting pro-apoptotic Bax protein, as well as the level of active caspase-3 (a key executioner protease) in MDA-MB-231 and MCF-7 cells have been assessed after incubation with QBS 11c and 13b for 24 h.
(§2) All adopted procedures for the conducted in vitro biological assays were performed as described earlier; CA (stopped-flow), cytotoxicity (MTT [37, 38]), and assessment of apoptotic markers assays, as well as induction of hypoxia with cobalt chloride, and were mentioned in the Supporting Materials. […]
(§3) 3. Assessment of Apo ptotic Markers Levels
(§4) The levels of the pro-apoptotic markers (Bax and active caspase-3) as well as the anti-apoptotic marker Bcl-2 were determined using ELISA kits; Human Bax ELISA Kit (EIA-4487) DRG® Instruments, Bcl-2 ELISA Kit (99–0042), Zymed® Laboratories, Invitrogen Immunodetection, and Human Caspase-3 (active) ELISA Kit (KHO1091) Invitrogen®, per the manufacturer’s instructions. Breast cancer MDA-MB-231 and MCF-7 cells were cultured as a monolayer in T-25 flasks and were seeded to attain 30% confluency prior to treatment. Cells were then treated separately with MBFS 11b at its IC50 concentration for 24 h. At the end of treatment, cells were collected via trypsinization and centrifuged at 10,000 rpm. The pellet was then rinsed with PBS and lysed in RIPA lysis buffer at 4 °C for 45 min, then centrifuged at 14,000 rpm for 20 min to remove the cellular debris. Lysates were then collected and stored at −80 °C for later protein determination using Pierce BCA Protein Assay Kit according to manufacturer’s recommendations.
(§5) The cell lysate was diluted 10 times, and 100 μL ([…]) was added to the wells of […] separate microtiter plates for the three ELISA kits th at were pre-coated with primary antibodies specific to Bax, Bcl-2, and caspase-3 proteins, respectively. A secondary biotin-linked antibody specific to the protein captured by the primary antibody was further added to bind the […]
(§6) captured protein, forming a “sandwich” of specific antibodies around the desired protein in the cell lysate. The streptavidin-HRP complex was then used to bind the biotin-linked secondary antibody through its streptavidin portion. The HRP domain reacted with the added TMB substrate to form a colored product that measured at 450 nm by a plate reader ChroMate-4300 after the reaction was terminated via the addition of stop solution. […]
(§7) The ligand 3D structures were prepared by Maestro and their ionization states was checked with Epik at pH 7.4±0.5 then they were subjected to energy minimization using OPLS3 force field in Macromodel with a maximum number of 2500 conjugate gradient iteration and a convergence of 0.05 kcal mol−1 A−1. […]

active caspase-3 [2] = assay: active caspase-3 level (ELISA) in MDA-MB-231 cells; type: cell-based, human; details: 24 h incubation
Description: as §1, §2, §3, §4, §5, §6, §7

Bax [3] = assay: Bax expression level (ELISA) in MCF-7 cells; type: cell-based, human; details: 24 h incubation
Description: as §1, §2
(§8) monolay er. Cell monolay ers were treated in quadrates with vehicle (DMSO, 0.1% v/v), test samples or Adriamycin as positive control for an exposure time of 72 h. At the end of exposure, MTT solution in PBS (5 mg/ml) was then added to all well including no cell blank and left to incubate for 90 min. The formation of formazan crystals were visually confirmed using phase contract microscopy. DMSO (100 µl/well) was added to dissolve the formazan crystals with shaking for 10 min after which the absorbance was read at 590 nm against no cell blanks on a FLuo Star Optima microplate reader (BMG technologies, Germany). Cell proliferation was calculated comparing the OD values of the DMSO control wells and those of the samples represented as % proliferation to the control. Dose-response experiment was performed on samples producing > or =50% loss of cell proliferation using five serial 2-fold dilutions (50, 25, 12.5, 6.25 and 3.125 µM) of the sample. IC50 values (concentration of sample causing 50% loss of cell proliferation of the vehicle control) were calculated using non-linear regression curve fitting of the dose response plots on GraphPad Prism V.6.0 software.
as §3
(§9) The levels of the pro-apoptotic markers (Bax and active caspase-3) as well as the anti-apoptotic marker Bcl-2 were determined using ELISA kits; Human Bax ELISA Kit (EIA-4487) DRG® Instruments, Bcl-2 ELISA Kit (99–0042), Zymed® Laboratories, Invitrogen Immunodetection, and Human Caspase-3 (active) ELISA Kit (KHO1091) Invitrogen®, per the manufacturer’s instructions. Breast cancer MDA-MB-231 and MCF-7 cells were cultured as a monolayer in T-25 flasks and were seeded to attain 30% confluency prior to treatment. Cells were then treated separately with MBFS 11b at its IC50 concentration for 24 h. […]
(§10) captured protein, forming a “sandwich” of specific antibodies around the desired protein in the cell lysate. […] The HRP domain reacted with the added TMB substrate to form a colored product that measured at 450 nm by a plate reader ChroMate-4300 after the reaction was terminated via the addition of stop solution. […]

Bcl-2 = Bcl-2 expression level (ELISA) in MCF-7 cells; type: cell-based, human; details: for Bcl-2 / Bcl-2, folds of control: 24 h incubation; for suppression of the expression level of Bcl-2 protein: compared to the untreated control
Description: as §1, §2, §8, §3, §4, §5, §6
as §7, with “A−1. Glide with default” for “A−1.”

active caspase-3 [4] = assay: active caspase-3 level (ELISA) in MCF-7 cells; type: cell-based, human; details: 24 h incubation
Description: as §1, §2, §8, §3, §9, §10

hCA I = hCA I (Homo sapiens, UniProt P00915); assay: stopped flow carbon dioxide hydrase assay, hCA I
hCA I, sequence (P00915 whole entry): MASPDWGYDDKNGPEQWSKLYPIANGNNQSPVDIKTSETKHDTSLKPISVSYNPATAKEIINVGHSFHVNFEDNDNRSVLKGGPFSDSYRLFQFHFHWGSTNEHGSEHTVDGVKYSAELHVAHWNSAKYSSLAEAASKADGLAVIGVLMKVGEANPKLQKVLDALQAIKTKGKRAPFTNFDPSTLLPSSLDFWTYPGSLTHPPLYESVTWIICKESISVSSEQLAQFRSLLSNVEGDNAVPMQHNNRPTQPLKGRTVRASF

hCA IX = hCA IX (Homo sapiens, UniProt Q16790); assay: stopped flow carbon dioxide hydrase assay, hCA IX; details: for Selectivity ratio I/IX: hCA IX over hCA I; for Selectivity ratio II/IX: hCA IX over hCA II

| Ki (hCA I) | Selectivity ratio I/IX (hCA IX) | Selectivity ratio II/IX (hCA IX) | Ki (hCA IX; read-out: KI CA IX, stopped flow technique, mean from 3 different assays) | melting point | Ki (hCA IX) | Structure (SMILES) | BAX (Bax [1]) | BAX, folds of control (Bax [1]) | Active Caspase-3 (active caspase-3 [2]) | Active Caspase-3, folds of control (active caspase-3 [2]) | BAX (Bax [3]) | BAX, folds of control (Bax [3]) | Bcl-2 (Bcl-2) | Bcl-2, folds of control (Bcl-2) | suppression of the expression level of Bcl-2 protein (Bcl-2) | Active Caspase-3 (active caspase-3 [4]) | Active Caspase-3, folds of control (active caspase-3 [4]) |
| --- | --- | --- | --- | --- | --- | --- | --- | --- | --- | --- | --- | --- | --- | --- | --- | --- | --- |
| 442 nM | 52.7 | 18.4 | 8.4 nM | – | – | NS(=O)(=O)c1cccc(Nc2ccnc3ccc(Cl)cc23)c1 [11c, 3-((6-chloroquinolin-4-yl)amino)benzenesulfonamide] | 420.9 ± 8.24 Pg/mg of Total Protein | 7.1 folds of control | 12.69 ± 1.14 Pg/mg of Total Protein | 4.93 folds of control | 512.9 ± 11.7 Pg/mg of Total Protein | 5.36 folds of control | 7.29 ± 0.15 Pg/mg of Total Protein | 0.79 folds of control | 21% | 17.83 ± 0.62 Pg/mg of Total Protein | 3.64 folds of control |
| 92.1 nM | 16.7 | 10.6 | – | 250 to 252 °C | 5.5 nM | COc1ccc2nccc(Nc3ccc(S(N)(=O)=O)cc3)c2c1 [13b, 4-((6-methoxyquinolin-4-yl)amino)benzenesulfonamide] | 373.5 ± 10.4 Pg/mg of Total Protein | 6.3 folds of control | 9.32 ± 0.73 Pg/mg of Total Protein | 3.62 folds of control | 443.9 ± 10.2 Pg/mg of Total Protein | 4.64 folds of control | 5.72 ± 0.13 Pg/mg of Total Protein | 0.62 folds of control | 38% | 14.82 ± 0.43 Pg/mg of Total Protein | 3.02 folds of control |
